Laboratory results from patent US20160317561A1, “USE OF D-RIBOSE FOR FATIGUED SUBJECTS” (Bioenergy Life Science, Inc., priority 2008, published 2016).

What was measured:
Type in all cases: in vivo, human
[1] = Fatigue questionnaire / Visual Analog Scale (VAS) for fatigue in fatigued aging subjects; details: for Fatigue questionnaire: lower dose (1.5 g bid)
Description: Subjects were monitored at baseline and during the two week treatment period for their perceived fatigue activity levels. Subjects were asked to rate on a ten point scale (1=near dead to 10=excellent) the following questions: How is your energy? (1=no energy, 10=excellent); How do you sleep? (1=no sleep, 10=8 hours without waking); How is your mental clarity? (1=“brain fog”, 10=good clarity); How bad is your pain?; How is your overall sense of well being? At weeks one and two, subjects were also asked to describe their overall rating of symptoms of fatigue as compared to their symptoms at baseline. The five point scale was; much better, somewhat better; no change; somewhat worse and much worse. The investigators selected end-points of some assessments to determine whether the subjects remained the same or improved at one and two weeks. The results were represented in a Visual Analog Scale (VAS) for fatigue. Nine subjects completed the VAS forms of subjective estimate of tiredness (Appendix B) on a scale of 1 (completely disagree) to 7 (completely agree).

[2] = SF-36 Quality of Life Questionnaire in fatigued aging subjects
Source text: The SF-36 Quality of Life Questionnaire was also used. Subjects were asked to fill out a questionnaire on the normal activities that they participated in. An example of the SF-36 Quality of Life Questionnaire is presented in Appendix A. These activities included household chores, walking, yard work and whether the subject routinely climbed stairs. Additionally, subjects were asked how many days in the past week they felt good; missed work or routine chores because of fatigue; how tired they felt and their state on awakening in the morning. In order to understand what the self-perception of fatigue (described as fatigue, tiredness or loss of vitality) indicates, it is helpful to look at the questions asked in SF-36 Quality of Life questionnaire (Appendix A). The SF-36 questionnaire is applied particularly to evaluating physician-prescribed therapies, but the gender-neutral, generic, coherent and easily administered questions are useful to evaluate any discrete cohort of subjects in the categories desired. […] The first three categories as listed are directed to the subject's self-perceived status. The remaining categories are directed to the extent that status (whatever that status may be), affects the subject's functioning roles in several categories.

[3] = Sub-maximal cardiopulmonary exercise (CPX) treadmill testing in fatigued aging subjects; details: for Hr to METS ratio at AT, mean change / Net Energy Expenditure at AT, mean change / O2 Uptake Slope, mean change / VE Slope, mean change / VO2 at AT, mean change: 3.0 g D-ribose bid orally
Description: The pilot study was performed enrolling 20 aging subjects, greater than 45 years of age, who were self-perceived as fatigued and tired as their customary daily state for at least one month, with no strenuous exercise or physical labor to account for the fatigue. No subjects had documented histories of heart/lung or metabolism/endocrine disease, as set out more fully below in the inclusion criteria. The causes of fatigue in aging subjects is unknown. It can be hypothesized that the causes are mental, since lowered cognition and feeling of wellbeing is also common in aging persons. The aforementioned studies of unhealthy persons or persons exercising strenuously found a dose of five to eight grams of D-ribose, taken two to four times per day was recommended to raise or maintain ATP levels. Lower amounts such as in this study, were not found adequate for those subjects. For the healthy, but sedentary and aging subjects for this study, it was expected that they were already at an optimum ATP level. Two doses of oral D-ribose at 1.5 grams or 3.0 grams bid were selected to test the hypothesis that raising ATP levels with D-ribose could have some benefit in improving fatigue. Each subject consumed the oral D-ribose for two weeks, dissolved in a small amount of water. Study assessments were done at baseline, and at one and two weeks during the trial. The lower dose study was continued an additional two weeks. The subjective and objective assessment parameters included: sub-maximal exercise performance, resting and sub-maximal energy expenditure, the SF-36 Quality of Life Assessment and a subjective questionnaire for evaluating fatigue.
Energy expenditure was calculated both at rest (BMR) and also at the anaerobic threshold (AT) using standard formulae incorporated into CPX-based software. Net energy expenditure was determined by subtracting resting values from those calculated at the subject's AT. In addition, the completed activity log was used to determine potential changes in cumulative (daily and weekly) energy expenditure throughout the first and second weeks while on D-ribose. Further, work efficiency was determined by calculating the reciprocal of aerobic power or the VO2 to WR ratio, as computed at the anaerobic threshold.
The formula for calculation of energy expenditure at the anaerobic threshold was based, in part, on the actual measured resting energy expenditure (RER) and VO2 at that level of exercise, knowing that a subject can sustain a steady state at the initial phase of the AT, which represents a particular phase of exercise whereby energy metabolism due to an increase in oxygen consumption resulting in a reduction in tissue oxygen perfusion shifts to an anaerobic instead of an oxidative phosphorylation. The AT interval varies from person to person depending on physical condition or training. Individuals who are not trained and relatively deconditioned have a low AT, as compared to elite endurance athletes having a high AT. At the AT, fuel mix for skeletal muscle metabolism is somewhat balanced. This point occurs in the range between 40% to 60% of the maximum VO2 attained. For example, assuming that equal amounts of fats and carbohydrates are oxidized at an RER of 0.85 just prior to AT onset, energy expenditure can be calculated using the formula VO2(L/min)×4.862 kcal/min for each liter of oxygen consumed. Likewise, if an individual was at an RER of 0.89 under steady state conditions, their absolute VO2 in L/min would be multiplied by a factor of 4.911. Net energy expenditure would be calculated subtracting the subject's resting energy expenditure (REE) or BMR. METS or net metabolic equivalents was also used to express the subject's activity level at their AT.
For this study, a ramping incremental treadmill exercise protocol was followed. […] The treadmill exercise was increased from 0 mph to 3.0 mph and the elevation increased from 0 to 12%, over the test time of six minutes. […]

[4] = Side effects of D-ribose administration in the study subjects; details: higher (3.0 g bid) or lower (1.5 g bid) doses
Source text: D-ribose ingestion is known to have the potential to cause gastrointestinal distress, including flatulence and diarrhea, and also can lower blood glucose.

Structure (SMILES): O=C[C@H](O)[C@H](O)[C@H](O)CO [D-ribose]
- Fatigue questionnaire ([1]; continued for an additional two weeks (four weeks), FIG. 7): Continued improvement
- Fatigue questionnaire ([1]; two weeks): slight reduction in fatigue
- Decrease in self-perceived levels of fatigue (average) ([1]; six grams of D-ribose per day (3.0 g bid), two weeks): 50%
- Response to the SF-36 Questionnaire ([2]; lower dose (1.5 g bid), four weeks): improvement in symptoms of general health, vitality and mental outlook
- SF-36 Bodily pain (interference with activities) ([2]; results at two weeks): significant improvement
- SF-36 Emotional function role ([2]; results at two weeks): significant improvement
- SF-36 Social function role ([2]; results at two weeks): significant improvement
- SF-36 Vitality ([2]; results at two weeks, initially low at 40th percentile): significant improvement
- SF-36 Physical competence ([2]; results at two weeks, initially near normal): slight improvement
- SF-36 General health ([2]; results at two weeks, initially normal): slight improvement
- SF-36 Role physical function ([2]; results at two weeks, initially slightly subnormal): significant improvement
- Social functionality, emotional wellbeing, mental health and mental competence (questionnaire) ([2]; two weeks, mental categories based on additional questions not in SF-36): increases
- Hr to METS ratio at AT, mean change ([3]; Week 1 vs baseline): −3.00 +/− 2.83
- Net Energy Expenditure at AT, mean change ([3]; Week 1 vs baseline): 9.32 +/− 7.67
- O2 Uptake Slope, mean change ([3]; Week 1 vs baseline): 0.17 +/− 0.19
- VE Slope, mean change ([3]; Week 1 vs baseline): −2.26 +/− 1.69
- VO2 at AT, mean change ([3]; Week 1 vs baseline): 1.53 +/− 0.90
- Hr to METS ratio at AT, mean change ([3]; Week 2 vs baseline): −3.67 +/− 3.27
- Net Energy Expenditure at AT, mean change ([3]; Week 2 vs baseline): 16.23 +/− 6.13
- O2 Uptake Slope, mean change ([3]; Week 2 vs baseline): 0.24 +/− 0.15
- VE Slope, mean change ([3]; Week 2 vs baseline): −2.44 +/− 2.24
- VO2 at AT, mean change ([3]; Week 2 vs baseline): 2.13 +/− 0.78
- Increase in resting energy expenditure at the AT onset ([3]; 3.0 g bid orally, end of two weeks): 8.2%
- Rise in net energy expenditure at the AT onset ([3]; 3.0 g bid orally, end of two weeks, p<0.0005): 32%
- Increase in VO2 at the AT onset ([3]; 3.0 g bid orally, end of two weeks, p<0.001): 18%
- Increase in heart rate at the AT onset ([3]; 3.0 g bid orally, end of two weeks, p=0.012): 9.2%
- Decrease in heart rate to METS ratio ([3]; 3.0 g bid orally, two weeks): 11.7%
- Decrease in oxygen pulse indexed to inspiratory drive ([3]; 3.0 g bid orally, two weeks): 8.9%
- Decrease in ventilatory efficiency slope ([3]; 3.0 g bid orally, two weeks): 8.5%
- Increase in change in oxygen pulse times change in expired CO2 at AT ([3]; 3.0 g bid orally, two weeks): 60.8%
- Average calorie burned from fat substrate at the AT ([3]; 3.0 g bid orally, two weeks, most subjects): did not change significantly
- CPX parameters (objective measures) ([3]; lower dose (1.5 g bid), two weeks to four weeks): positive trend
- Side effects of D-ribose administration [4]: No subjects in this study, at either the higher or the lower doses, experienced any side effects
